The record followed here is patent publication US7011839B2, “Otic microbial combination for treatment of animals with ruptured tympanic membrane” (Baya Corporation, priority 2000, dated 2006).

What all share (experiment): MIC of each active ingredient (NCCLS agar plates)
Holding throughout (format): cell-based

For one assay, the system named is Malassezia. Particulars: at the concentrations tested.
The subject of the next assay is Candida. As to conditions: at the concentrations tested.
Assay [1] concerns common dermal (otic) pathogens.

In the case of `CCN1CCN(c2cc3c(cc2F)c(=O)c(C(=O)O)cn3C2CC2)CC1` [Enrofloxacin], the “Effectiveness on Malassezia” value in the assay with Malassezia was “not effective”. Moreover, the “Effectiveness on Candida” value in the assay with Candida was “not effective”. Besides, the “Activity on common dermal (otic) pathogens, based on MICs” value in assay [1] is “active”.
